Assay: Safety in phase 1/1b study (DLTs, TRAEs, TEAEs; CTCAE v4.03)
Type: in vivo, human
Excerpt: Safety assessments included evaluation of DLTs, AEs, physical examinations, vital sign measurements, electrocardiogram recordings and laboratory tests.
A DLT was defined as a grade ≥ 4 hematologic abnormality lasting ≥ 4 days; grade 3 thrombocytopenia with clinically significant bleeding; febrile neutropenia; clinically significant grade ≥ 3 non-hematologic AEs not related to underlying malignancy; intolerable grade 2 AEs; or toxicity resulting in an inability to deliver 80% of the dose during the first treatment cycle.
The safety population included all patients who received ≥ 1 dose of sitravatinib. […] The PK evaluable population included all patients with sufficient concentration-time data for PK parameter evaluation. The modified intent-to-treat (mITT) population included all phase 1b patients who received ≥ 1 dose of study drug.

**Q.** Which “Hypophosphatemia TEAE, grade ≥3” value (150 mg phase 1b) does the source give for `COCCNCc1ccc(-c2cc3nccc(Oc4ccc(NC(=O)C5(C(=O)Nc6ccc(F)cc6)CC5)cc4F)c3s2)nc1` [sitravatinib, Sitravatinib] here?
**A.** 9 (9.1) n (%)

**Q.** What about the “Hypothyroidism TEAE, any grade” value (150 mg phase 1b) of the same compound?
**A.** 22 (22.2) n (%)

**Q.** What about the “Hypothyroidism TEAE, grade ≥3” value (150 mg phase 1b) of the same compound?
**A.** 0 n (%)

**Q.** What about the “Hypothyroidism TRAE, any grade” value (150 mg phase 1b) of the same compound?
**A.** 16 (16.2) n (%)

**Q.** And the “Hypothyroidism TRAE, grade ≥3” value (150 mg phase 1b)?
**A.** 0 n (%)

**Q.** And the “Infections and infestations TEAE, any grade” value (150 mg phase 1b)?
**A.** 40 (40.4) n (%)

**Q.** What about the “Infections and infestations TEAE, grade ≥3” value (150 mg phase 1b) of the same compound?
**A.** 12 (12.1) n (%)

**Q.** And the “Injury, poisoning, procedural complications TEAE, any grade” value (150 mg phase 1b)?
**A.** 20 (20.2) n (%)

**Q.** And the “Injury, poisoning, procedural complications TEAE, grade ≥3” value (150 mg phase 1b)?
**A.** 2 (2.0) n (%)

**Q.** What about the “Investigations TEAE, any grade” value (150 mg phase 1b) of the same compound?
**A.** 66 (66.7) n (%)

**Q.** What about the “Investigations TEAE, grade ≥3” value (150 mg phase 1b) of the same compound?
**A.** 23 (23.2) n (%)

**Q.** And the “Lipase increased TEAE, any grade” value (150 mg phase 1b)?
**A.** 15 (15.2) n (%)

**Q.** What about the “Lipase increased TEAE, grade ≥3” value (150 mg phase 1b) of the same compound?
**A.** 10 (10.1) n (%)

**Q.** And the “Metabolism and nutrition disorders TEAE, any grade” value (150 mg phase 1b)?
**A.** 71 (71.7) n (%)

**Q.** And the “Metabolism and nutrition disorders TEAE, grade ≥3” value (150 mg phase 1b)?
**A.** 26 (26.3) n (%)

**Q.** And the “Musculoskeletal and connective tissue disorders TEAE, any grade” value (150 mg phase 1b)?
**A.** 56 (56.6) n (%)

**Q.** And the “Musculoskeletal and connective tissue disorders TEAE, grade ≥3” value (150 mg phase 1b)?
**A.** 8 (8.1) n (%)

**Q.** And the “Nausea TEAE, any grade” value (150 mg phase 1b)?
**A.** 49 (49.5) n (%)

**Q.** And the “Nausea TEAE, grade ≥3” value (150 mg phase 1b)?
**A.** 7 (7.1) n (%)

**Q.** And the “Nausea TRAE, any grade” value (150 mg phase 1b)?
**A.** 38 (38.4) n (%)

**Q.** And the “Nausea TRAE, grade ≥3” value (150 mg phase 1b)?
**A.** 5 (5.1) n (%)

**Q.** What about the “Neoplasms benign, malignant, unspecified TEAE, any grade” value (150 mg phase 1b) of the same compound?
**A.** 10 (10.1) n (%)

**Q.** And the “Neoplasms benign, malignant, unspecified TEAE, grade ≥3” value (150 mg phase 1b)?
**A.** 8 (8.1) n (%)

**Q.** What about the “Nervous system disorders TEAE, any grade” value (150 mg phase 1b) of the same compound?
**A.** 50 (50.5) n (%)

**Q.** What about the “Nervous system disorders TEAE, grade ≥3” value (150 mg phase 1b) of the same compound?
**A.** 5 (5.1) n (%)

**Q.** And the “PPE syndrome TEAE, any grade” value (150 mg phase 1b)?
**A.** 23 (23.2) n (%)

**Q.** What about the “PPE syndrome TEAE, grade ≥3” value (150 mg phase 1b) of the same compound?
**A.** 4 (4.0) n (%)

**Q.** And the “PPE syndrome TRAE, any grade” value (150 mg phase 1b)?
**A.** 22 (22.2) n (%)

**Q.** What about the “PPE syndrome TRAE, grade ≥3” value (150 mg phase 1b) of the same compound?
**A.** 4 (4.0) n (%)

**Q.** And the “Pain in extremity TEAE, any grade” value (150 mg phase 1b)?
**A.** 15 (15.2) n (%)

**Q.** What about the “Pain in extremity TEAE, grade ≥3” value (150 mg phase 1b) of the same compound?
**A.** 2 (2.0) n (%)

**Q.** What about the “Proteinuria TEAE, any grade” value (150 mg phase 1b) of the same compound?
**A.** 11 (11.1) n (%)

**Q.** And the “Proteinuria TEAE, grade ≥3” value (150 mg phase 1b)?
**A.** 0 n (%)

**Q.** And the “Proteinuria TRAE, any grade” value (150 mg phase 1b)?
**A.** 9 (9.1) n (%)

**Q.** And the “Proteinuria TRAE, grade ≥3” value (150 mg phase 1b)?
**A.** 0 n (%)

**Q.** And the “Psychiatric disorders TEAE, any grade” value (150 mg phase 1b)?
**A.** 25 (25.3) n (%)

**Q.** What about the “Psychiatric disorders TEAE, grade ≥3” value (150 mg phase 1b) of the same compound?
**A.** 1 (1.0) n (%)

**Q.** What about the “Rash TEAE, any grade” value (150 mg phase 1b) of the same compound?
**A.** 12 (12.1) n (%)

**Q.** What about the “Rash TEAE, grade ≥3” value (150 mg phase 1b) of the same compound?
**A.** 0 n (%)

**Q.** What about the “Rash TRAE, any grade” value (150 mg phase 1b) of the same compound?
**A.** 11 (11.1) n (%)

**Q.** And the “Rash TRAE, grade ≥3” value (150 mg phase 1b)?
**A.** 0 n (%)

**Q.** And the “Renal and urinary disorders TEAE, any grade” value (150 mg phase 1b)?
**A.** 23 (23.2) n (%)

**Q.** What about the “Renal and urinary disorders TEAE, grade ≥3” value (150 mg phase 1b) of the same compound?
**A.** 1 (1.0) n (%)

**Q.** And the “Respiratory, thoracic and mediastinal disorders TEAE, any grade” value (150 mg phase 1b)?
**A.** 65 (65.7) n (%)

**Q.** What about the “Respiratory, thoracic and mediastinal disorders TEAE, grade ≥3” value (150 mg phase 1b) of the same compound?
**A.** 14 (14.1) n (%)

**Q.** And the “Serious TEAE” value (150 mg phase 1b)?
**A.** 49 (49.5) n (%)

**Q.** And the “Serious TRAE” value (150 mg phase 1b)?
**A.** 22 (22.2) n (%)

**Q.** And the “Skin and subcutaneous tissue disorders TEAE, any grade” value (150 mg phase 1b)?
**A.** 55 (55.6) n (%)

**Q.** What about the “Skin and subcutaneous tissue disorders TEAE, grade ≥3” value (150 mg phase 1b) of the same compound?
**A.** 6 (6.1) n (%)

**Q.** What about the “Stomatitis TEAE, any grade” value (150 mg phase 1b) of the same compound?
**A.** 14 (14.1) n (%)

**Q.** What about the “Stomatitis TEAE, grade ≥3” value (150 mg phase 1b) of the same compound?
**A.** 1 (1.0) n (%)

**Q.** What about the “Stomatitis TRAE, any grade” value (150 mg phase 1b) of the same compound?
**A.** 14 (14.1) n (%)

**Q.** And the “Stomatitis TRAE, grade ≥3” value (150 mg phase 1b)?
**A.** 1 (1.0) n (%)

**Q.** What about the “TEAE grade ≥3” value (150 mg phase 1b) of the same compound?
**A.** 80 (80.8) n (%)

**Q.** What about the “TEAE leading to death” value (150 mg phase 1b) of the same compound?
**A.** 10 (10.1) n (%)

**Q.** What about the “TEAE leading to discontinuation” value (150 mg phase 1b) of the same compound?
**A.** 24 (24.2) n (%)

**Q.** What about the “TEAE leading to treatment modification” value (150 mg phase 1b) of the same compound?
**A.** 74 (74.7) n (%)

**Q.** What about the “TRAE grade ≥3” value (150 mg phase 1b) of the same compound?
**A.** 61 (61.6) n (%)

**Q.** What about the “TRAE leading to death” value (150 mg phase 1b) of the same compound?
**A.** 1 (1.0) n (%)

**Q.** What about the “TRAE leading to discontinuation” value (150 mg phase 1b) of the same compound?
**A.** 17 (17.2) n (%)

**Q.** And the “TRAE leading to treatment modification” value (150 mg phase 1b)?
**A.** 66 (66.7) n (%)

**Q.** And the “UTI TEAE, any grade” value (150 mg phase 1b)?
**A.** 14 (14.1) n (%)

**Q.** What about the “UTI TEAE, grade ≥3” value (150 mg phase 1b) of the same compound?
**A.** 3 (3.0) n (%)

**Q.** And the “Vascular disorders TEAE, any grade” value (150 mg phase 1b)?
**A.** 61 (61.6) n (%)

**Q.** And the “Vascular disorders TEAE, grade ≥3” value (150 mg phase 1b)?
**A.** 32 (32.3) n (%)

**Q.** What about the “Vomiting TEAE, any grade” value (150 mg phase 1b) of the same compound?
**A.** 38 (38.4) n (%)

**Q.** What about the “Vomiting TEAE, grade ≥3” value (150 mg phase 1b) of the same compound?
**A.** 10 (10.1) n (%)

**Q.** And the “Vomiting TRAE, any grade” value (150 mg phase 1b)?
**A.** 31 (31.3) n (%)

**Q.** What about the “Vomiting TRAE, grade ≥3” value (150 mg phase 1b) of the same compound?
**A.** 5 (5.1) n (%)

**Q.** And the “Weight decreased TEAE, any grade” value (150 mg phase 1b)?
**A.** 28 (28.3) n (%)

**Q.** And the “Weight decreased TEAE, grade ≥3” value (150 mg phase 1b)?
**A.** 3 (3.0) n (%)

**Q.** What about the “Weight decreased TRAE, any grade” value (150 mg phase 1b) of the same compound?
**A.** 18 (18.2) n (%)

**Q.** What about the “Weight decreased TRAE, grade ≥3” value (150 mg phase 1b) of the same compound?
**A.** 2 (2.0) n (%)

**Q.** What about the “ALT increased TEAE, any grade” value (Overall) of the same compound?
**A.** 46 (23.8) n (%)

**Q.** What about the “ALT increased TEAE, grade ≥3” value (Overall) of the same compound?
**A.** 5 (2.6) n (%)

**Q.** And the “ALT increased TRAE, any grade” value (Overall)?
**A.** 35 (18.1) n (%)

**Q.** And the “ALT increased TRAE, grade ≥3” value (Overall)?
**A.** 3 (1.6) n (%)

**Q.** What about the “AST increased TEAE, any grade” value (Overall) of the same compound?
**A.** 47 (24.4) n (%)

**Q.** What about the “AST increased TEAE, grade ≥3” value (Overall) of the same compound?
**A.** 4 (2.1) n (%)

From article PMC9395446, “First-in-human phase 1/1b study to evaluate sitravatinib in patients with advanced solid tumors” (Investigational New Drugs, 2022)
